Experimental findings from paper doi:10.1101/2025.07.02.662801v1 (biorxiv, 2025) are described below.

Where two headings read alike, the source gives them in different places.

By IC50 is commonly meant the point on the concentration scale where inhibition reaches its midpoint. The low end stands for inhibition by little substance, the high end for a need for much substance.

What all share (format): biochemical
Assay [1] deals with T1, PTPN2 (TC-PTP); GST-TC-PTP catalytic domain (Homo sapiens, UniProt P17706).
T1 sequence (P17706 1-314 limits assumed): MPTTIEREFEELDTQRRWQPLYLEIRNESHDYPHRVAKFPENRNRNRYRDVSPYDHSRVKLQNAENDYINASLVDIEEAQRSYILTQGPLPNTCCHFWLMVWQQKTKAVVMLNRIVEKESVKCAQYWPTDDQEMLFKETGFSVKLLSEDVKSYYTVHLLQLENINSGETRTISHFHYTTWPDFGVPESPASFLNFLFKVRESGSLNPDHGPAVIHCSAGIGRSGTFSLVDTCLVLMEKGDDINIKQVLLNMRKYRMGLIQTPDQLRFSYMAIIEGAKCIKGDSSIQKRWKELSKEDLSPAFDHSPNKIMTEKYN
Kind of assay: DiFMUP fluorescence phosphatase assay.

Assay [2] concerns the target T2, PTPN1 (PTP1B); GST-PTP1B catalytic domain (Homo sapiens, UniProt P18031).
T2 sequence (P18031 1-321 limits assumed): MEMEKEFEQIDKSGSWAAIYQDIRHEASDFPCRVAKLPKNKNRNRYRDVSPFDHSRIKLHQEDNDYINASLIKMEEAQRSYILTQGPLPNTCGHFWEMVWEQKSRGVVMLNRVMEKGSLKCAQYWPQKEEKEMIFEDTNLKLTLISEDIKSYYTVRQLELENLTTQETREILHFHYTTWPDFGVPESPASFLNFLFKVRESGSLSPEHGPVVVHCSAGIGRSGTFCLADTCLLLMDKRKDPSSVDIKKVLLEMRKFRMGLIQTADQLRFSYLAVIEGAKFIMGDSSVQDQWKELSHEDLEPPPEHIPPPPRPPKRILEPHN
Kind of assay: DiFMUP fluorescence phosphatase assay.

The next assay addresses T3, PTPN9 (MEG2) (Homo sapiens, UniProt P43378).
T3 sequence (P43378 1-593): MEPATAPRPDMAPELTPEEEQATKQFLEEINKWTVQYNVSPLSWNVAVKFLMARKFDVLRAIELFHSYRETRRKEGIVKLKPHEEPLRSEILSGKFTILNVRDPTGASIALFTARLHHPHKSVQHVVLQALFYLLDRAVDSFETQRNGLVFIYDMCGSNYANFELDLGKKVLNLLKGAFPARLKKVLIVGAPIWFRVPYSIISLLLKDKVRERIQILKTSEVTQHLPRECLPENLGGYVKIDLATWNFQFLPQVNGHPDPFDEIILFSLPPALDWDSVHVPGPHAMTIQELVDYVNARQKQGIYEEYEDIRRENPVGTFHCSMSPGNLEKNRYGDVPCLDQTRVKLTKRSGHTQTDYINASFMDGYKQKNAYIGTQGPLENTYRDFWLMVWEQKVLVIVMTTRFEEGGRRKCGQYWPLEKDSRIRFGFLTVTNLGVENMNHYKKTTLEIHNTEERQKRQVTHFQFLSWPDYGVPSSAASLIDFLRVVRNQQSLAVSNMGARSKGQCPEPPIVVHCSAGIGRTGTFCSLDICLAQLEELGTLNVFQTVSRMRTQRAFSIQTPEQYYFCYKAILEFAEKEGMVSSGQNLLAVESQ
Kind of assay: in vitro phosphatase activity curve.

On to `N#Cc1ccc2cc(Br)c(C(F)(F)P(=O)(O)O)cc2c1` [L598], for which, in assay [1] (50 mM HEPES pH 7.0, 3 mM DTT, 1 mg/mL BSA, 25 °C, DiFMUP at Km), the midpoint of inhibition, the IC50, lay at 489 nM.
Take `N#CCc1ccc2cc(Br)c(C(F)(F)P(=O)(O)O)cc2c1` [KQ791]: the IC50 in assay [1] was 188 nM; in assay [2], 188 nM; against PTPN9 (MEG2), 7.2 µM.
